Laboratory results from ChEMBL document CHEMBL5291721, “A preclinical secondary pharmacology resource illuminates target-adverse drug reaction associations of marketed drugs” (Nat Commun, 2023).

Legend:
Adenosine receptor A1 = target: T1, Adenosine receptor A1 (Homo sapiens, UniProt P30542)
T1 sequence (P30542 whole entry): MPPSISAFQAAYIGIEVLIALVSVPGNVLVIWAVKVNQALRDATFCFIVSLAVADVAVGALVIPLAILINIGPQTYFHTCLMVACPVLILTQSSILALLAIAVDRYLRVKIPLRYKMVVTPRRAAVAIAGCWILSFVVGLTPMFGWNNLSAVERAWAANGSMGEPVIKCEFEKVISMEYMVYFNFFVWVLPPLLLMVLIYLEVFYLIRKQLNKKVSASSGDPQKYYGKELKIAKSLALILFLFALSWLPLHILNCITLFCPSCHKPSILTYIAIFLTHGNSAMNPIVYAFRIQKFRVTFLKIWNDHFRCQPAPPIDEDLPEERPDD

[1] = target: T2, Alpha-2C adrenergic receptor (Homo sapiens, UniProt P18825); type: functional
T2 sequence (P18825 whole entry): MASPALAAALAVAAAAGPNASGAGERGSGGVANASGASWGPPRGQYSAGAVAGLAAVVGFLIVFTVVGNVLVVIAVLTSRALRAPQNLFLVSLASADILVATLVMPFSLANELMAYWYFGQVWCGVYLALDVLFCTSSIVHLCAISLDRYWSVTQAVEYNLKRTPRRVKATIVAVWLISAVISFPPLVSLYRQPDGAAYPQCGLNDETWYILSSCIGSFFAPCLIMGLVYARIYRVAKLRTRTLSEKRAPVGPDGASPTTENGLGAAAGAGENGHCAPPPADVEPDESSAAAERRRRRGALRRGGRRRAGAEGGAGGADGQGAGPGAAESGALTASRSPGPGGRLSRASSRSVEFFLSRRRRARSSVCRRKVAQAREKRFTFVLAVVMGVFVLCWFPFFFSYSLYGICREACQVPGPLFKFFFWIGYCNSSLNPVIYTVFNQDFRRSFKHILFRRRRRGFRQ

[2] = target: Beta-1 adrenergic receptor (Homo sapiens, UniProt P08588); type: functional
Vasopressin V2 receptor = Vasopressin V2 receptor (Homo sapiens, UniProt P30518)
[3] = target: Gamma-aminobutyric acid receptor subunit alpha-1 (Rattus norvegicus, UniProt P62813); type: functional
[4] = target: Glutamate receptor ionotropic, NMDA 1 (Rattus norvegicus, UniProt P35439)
Histamine H1 receptor = Histamine H1 receptor (Homo sapiens, UniProt P35367)
Histamine H2 receptor = Histamine H2 receptor (Homo sapiens, UniProt P25021); type: functional, cell-based
[5] = target: T3, 5-hydroxytryptamine receptor 2C (Homo sapiens, UniProt P28335)
T3 sequence (P28335 whole entry): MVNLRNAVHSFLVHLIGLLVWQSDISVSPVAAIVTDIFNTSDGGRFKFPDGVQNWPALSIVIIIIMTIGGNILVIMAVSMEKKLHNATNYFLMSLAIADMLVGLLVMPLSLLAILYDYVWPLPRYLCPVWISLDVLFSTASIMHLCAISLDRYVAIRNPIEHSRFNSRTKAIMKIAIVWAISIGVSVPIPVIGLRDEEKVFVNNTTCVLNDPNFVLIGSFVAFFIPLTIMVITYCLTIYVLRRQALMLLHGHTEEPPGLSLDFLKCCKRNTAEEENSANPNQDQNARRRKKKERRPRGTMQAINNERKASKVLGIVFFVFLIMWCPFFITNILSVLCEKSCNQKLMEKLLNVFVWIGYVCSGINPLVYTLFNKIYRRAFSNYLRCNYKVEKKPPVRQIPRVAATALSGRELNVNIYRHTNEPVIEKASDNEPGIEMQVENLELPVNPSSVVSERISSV

[6] = target: Voltage-gated inwardly rectifying potassium channel KCNH2 (Homo sapiens, UniProt Q12809); type: functional
Melanocortin receptor 3 = Melanocortin receptor 3 (Homo sapiens, UniProt P41968)
[7] = target: T4, Neuropeptide Y receptor type 1 (Homo sapiens, UniProt P25929); conditions: read-out: AC50
T4 sequence (P25929 whole entry): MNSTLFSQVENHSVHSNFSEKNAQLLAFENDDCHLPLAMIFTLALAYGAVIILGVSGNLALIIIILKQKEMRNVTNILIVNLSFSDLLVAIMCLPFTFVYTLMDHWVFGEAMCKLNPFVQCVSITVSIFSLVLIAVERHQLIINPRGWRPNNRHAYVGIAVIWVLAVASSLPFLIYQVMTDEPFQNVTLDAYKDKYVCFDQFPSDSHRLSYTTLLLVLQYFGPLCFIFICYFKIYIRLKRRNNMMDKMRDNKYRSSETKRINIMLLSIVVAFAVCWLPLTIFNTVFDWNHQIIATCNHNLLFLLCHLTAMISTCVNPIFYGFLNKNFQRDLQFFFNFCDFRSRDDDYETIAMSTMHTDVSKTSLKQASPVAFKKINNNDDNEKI

[8] = target: Delta-type opioid receptor (Homo sapiens, UniProt P41143)
[9] = target: T5, Prostaglandin G/H synthase 1 (Rattus norvegicus, UniProt Q63921); type: functional
T5 sequence (Q63921 whole entry): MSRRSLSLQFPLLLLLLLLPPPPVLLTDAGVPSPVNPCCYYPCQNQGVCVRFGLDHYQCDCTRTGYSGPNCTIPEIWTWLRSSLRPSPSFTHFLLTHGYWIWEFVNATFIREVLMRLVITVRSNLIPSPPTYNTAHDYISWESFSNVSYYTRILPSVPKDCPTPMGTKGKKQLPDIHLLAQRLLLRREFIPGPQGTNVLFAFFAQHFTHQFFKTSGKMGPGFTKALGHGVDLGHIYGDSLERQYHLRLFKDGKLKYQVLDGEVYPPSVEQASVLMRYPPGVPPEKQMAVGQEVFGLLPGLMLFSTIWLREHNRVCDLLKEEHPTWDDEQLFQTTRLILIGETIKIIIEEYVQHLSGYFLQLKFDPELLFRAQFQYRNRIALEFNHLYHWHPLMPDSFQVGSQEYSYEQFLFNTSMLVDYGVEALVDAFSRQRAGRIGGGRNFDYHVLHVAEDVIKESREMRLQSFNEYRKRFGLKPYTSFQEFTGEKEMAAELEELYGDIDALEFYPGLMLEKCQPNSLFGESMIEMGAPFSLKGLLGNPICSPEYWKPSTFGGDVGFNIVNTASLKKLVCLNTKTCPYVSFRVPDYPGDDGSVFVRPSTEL

D(3) dopamine receptor = D(3) dopamine receptor (Homo sapiens, UniProt P35462)
Histamine H3 receptor = Histamine H3 receptor (Homo sapiens, UniProt Q9Y5N1)
Further: assay procedure not described here.

Vasopressin V2 receptor, sequence (P30518 whole entry): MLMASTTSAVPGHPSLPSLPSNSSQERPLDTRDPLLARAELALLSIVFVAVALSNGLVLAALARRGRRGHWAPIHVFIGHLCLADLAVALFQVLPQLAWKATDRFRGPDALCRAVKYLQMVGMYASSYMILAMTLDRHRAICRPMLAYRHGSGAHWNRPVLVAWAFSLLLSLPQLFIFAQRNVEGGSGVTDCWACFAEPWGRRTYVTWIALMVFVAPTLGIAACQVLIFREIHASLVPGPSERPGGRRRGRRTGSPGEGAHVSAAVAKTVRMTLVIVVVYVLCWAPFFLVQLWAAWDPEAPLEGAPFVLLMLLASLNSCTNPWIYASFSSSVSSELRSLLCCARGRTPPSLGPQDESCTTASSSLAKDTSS
Voltage-gated inwardly rectifying potassium channel KCNH2, sequence (Q12809 whole entry): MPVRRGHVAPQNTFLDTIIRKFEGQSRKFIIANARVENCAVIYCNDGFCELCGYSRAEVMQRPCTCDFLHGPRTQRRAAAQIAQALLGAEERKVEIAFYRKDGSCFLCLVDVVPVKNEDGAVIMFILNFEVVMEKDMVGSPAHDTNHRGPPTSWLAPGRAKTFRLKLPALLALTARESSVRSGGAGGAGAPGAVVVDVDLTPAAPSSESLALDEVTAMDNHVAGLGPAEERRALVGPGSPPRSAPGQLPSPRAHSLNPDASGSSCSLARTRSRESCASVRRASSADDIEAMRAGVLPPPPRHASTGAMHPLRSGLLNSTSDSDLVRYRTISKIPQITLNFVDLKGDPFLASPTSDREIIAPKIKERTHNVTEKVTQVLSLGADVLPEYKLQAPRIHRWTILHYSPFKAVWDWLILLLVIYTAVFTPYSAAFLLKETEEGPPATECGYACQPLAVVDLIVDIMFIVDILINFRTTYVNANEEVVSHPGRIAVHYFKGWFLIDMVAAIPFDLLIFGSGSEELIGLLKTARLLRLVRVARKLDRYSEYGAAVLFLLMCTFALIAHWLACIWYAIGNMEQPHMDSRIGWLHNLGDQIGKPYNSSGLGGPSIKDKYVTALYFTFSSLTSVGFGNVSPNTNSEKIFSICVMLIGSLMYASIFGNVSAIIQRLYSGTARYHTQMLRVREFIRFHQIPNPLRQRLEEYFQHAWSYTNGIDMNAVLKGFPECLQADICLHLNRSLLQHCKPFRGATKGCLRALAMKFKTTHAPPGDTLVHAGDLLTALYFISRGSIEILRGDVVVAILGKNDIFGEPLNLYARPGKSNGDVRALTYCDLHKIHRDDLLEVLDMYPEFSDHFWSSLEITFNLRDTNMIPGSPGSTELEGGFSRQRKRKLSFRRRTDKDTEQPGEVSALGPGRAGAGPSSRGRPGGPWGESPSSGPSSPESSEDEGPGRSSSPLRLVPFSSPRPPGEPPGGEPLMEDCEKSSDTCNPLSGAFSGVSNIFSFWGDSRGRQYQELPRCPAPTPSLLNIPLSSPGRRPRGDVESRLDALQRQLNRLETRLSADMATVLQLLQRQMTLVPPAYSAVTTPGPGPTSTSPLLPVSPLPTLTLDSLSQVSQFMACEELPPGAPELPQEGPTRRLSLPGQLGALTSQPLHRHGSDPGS
Gamma-aminobutyric acid receptor subunit alpha-1, sequence (P62813 whole entry): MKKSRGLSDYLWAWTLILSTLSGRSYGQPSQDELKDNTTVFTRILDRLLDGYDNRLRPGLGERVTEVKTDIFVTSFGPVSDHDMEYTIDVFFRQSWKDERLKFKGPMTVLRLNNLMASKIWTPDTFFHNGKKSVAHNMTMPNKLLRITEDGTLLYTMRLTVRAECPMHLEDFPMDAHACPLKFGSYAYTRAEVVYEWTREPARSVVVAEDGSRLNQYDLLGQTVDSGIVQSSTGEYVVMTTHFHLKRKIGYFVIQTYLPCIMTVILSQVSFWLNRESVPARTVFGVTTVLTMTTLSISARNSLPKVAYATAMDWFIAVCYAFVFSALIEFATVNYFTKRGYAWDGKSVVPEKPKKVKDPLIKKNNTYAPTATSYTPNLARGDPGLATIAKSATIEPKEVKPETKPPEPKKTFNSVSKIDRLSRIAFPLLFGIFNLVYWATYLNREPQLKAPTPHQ
Delta-type opioid receptor, sequence (P41143 whole entry): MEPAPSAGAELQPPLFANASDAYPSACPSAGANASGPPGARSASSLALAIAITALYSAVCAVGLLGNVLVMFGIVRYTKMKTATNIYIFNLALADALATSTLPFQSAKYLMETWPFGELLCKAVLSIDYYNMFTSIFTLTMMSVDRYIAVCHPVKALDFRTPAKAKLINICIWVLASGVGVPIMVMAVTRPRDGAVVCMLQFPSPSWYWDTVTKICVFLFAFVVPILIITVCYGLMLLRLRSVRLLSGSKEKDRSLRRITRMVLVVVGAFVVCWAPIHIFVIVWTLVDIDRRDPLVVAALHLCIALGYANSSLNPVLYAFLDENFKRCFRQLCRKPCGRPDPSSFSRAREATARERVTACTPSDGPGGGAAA
D(3) dopamine receptor, sequence (P35462 whole entry): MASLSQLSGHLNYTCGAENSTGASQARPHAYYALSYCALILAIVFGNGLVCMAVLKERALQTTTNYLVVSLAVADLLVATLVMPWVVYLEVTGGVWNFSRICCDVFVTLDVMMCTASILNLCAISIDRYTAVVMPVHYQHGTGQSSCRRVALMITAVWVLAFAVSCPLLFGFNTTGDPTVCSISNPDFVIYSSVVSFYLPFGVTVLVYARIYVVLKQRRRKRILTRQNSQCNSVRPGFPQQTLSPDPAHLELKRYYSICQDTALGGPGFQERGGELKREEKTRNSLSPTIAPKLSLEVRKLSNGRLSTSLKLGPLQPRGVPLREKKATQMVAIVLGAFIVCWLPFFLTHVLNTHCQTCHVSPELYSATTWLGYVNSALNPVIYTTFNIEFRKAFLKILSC
Histamine H1 receptor, sequence (P35367 whole entry): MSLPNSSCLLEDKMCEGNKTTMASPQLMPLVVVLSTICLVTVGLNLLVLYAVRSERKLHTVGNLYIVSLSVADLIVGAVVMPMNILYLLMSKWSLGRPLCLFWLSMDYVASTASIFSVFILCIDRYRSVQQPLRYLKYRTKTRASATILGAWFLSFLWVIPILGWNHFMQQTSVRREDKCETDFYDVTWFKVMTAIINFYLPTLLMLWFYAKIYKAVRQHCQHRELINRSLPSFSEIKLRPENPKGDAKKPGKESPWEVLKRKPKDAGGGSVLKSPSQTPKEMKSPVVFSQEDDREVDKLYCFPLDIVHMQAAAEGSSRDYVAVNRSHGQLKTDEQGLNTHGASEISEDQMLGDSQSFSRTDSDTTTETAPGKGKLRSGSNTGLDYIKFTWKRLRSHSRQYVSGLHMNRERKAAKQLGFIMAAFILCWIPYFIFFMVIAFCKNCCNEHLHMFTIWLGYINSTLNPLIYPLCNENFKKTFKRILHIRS
Melanocortin receptor 3, sequence (P41968 whole entry): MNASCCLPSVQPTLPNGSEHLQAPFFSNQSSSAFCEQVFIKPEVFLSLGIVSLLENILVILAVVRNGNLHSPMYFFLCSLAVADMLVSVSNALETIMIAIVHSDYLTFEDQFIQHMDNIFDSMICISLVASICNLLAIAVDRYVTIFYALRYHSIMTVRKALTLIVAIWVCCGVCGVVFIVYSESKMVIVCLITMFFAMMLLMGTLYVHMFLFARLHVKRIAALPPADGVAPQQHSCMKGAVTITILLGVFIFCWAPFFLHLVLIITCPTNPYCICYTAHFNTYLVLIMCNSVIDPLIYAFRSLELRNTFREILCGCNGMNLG
Histamine H2 receptor, sequence (P25021 whole entry): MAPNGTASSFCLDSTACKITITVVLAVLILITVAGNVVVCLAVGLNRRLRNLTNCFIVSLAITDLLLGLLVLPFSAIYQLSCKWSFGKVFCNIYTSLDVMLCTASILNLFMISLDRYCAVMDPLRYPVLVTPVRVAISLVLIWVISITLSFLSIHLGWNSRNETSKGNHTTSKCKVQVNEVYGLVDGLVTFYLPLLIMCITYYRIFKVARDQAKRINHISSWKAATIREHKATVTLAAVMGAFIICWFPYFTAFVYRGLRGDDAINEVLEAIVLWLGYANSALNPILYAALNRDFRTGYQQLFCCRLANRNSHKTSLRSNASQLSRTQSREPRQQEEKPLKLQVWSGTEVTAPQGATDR
Histamine H3 receptor, sequence (Q9Y5N1 whole entry): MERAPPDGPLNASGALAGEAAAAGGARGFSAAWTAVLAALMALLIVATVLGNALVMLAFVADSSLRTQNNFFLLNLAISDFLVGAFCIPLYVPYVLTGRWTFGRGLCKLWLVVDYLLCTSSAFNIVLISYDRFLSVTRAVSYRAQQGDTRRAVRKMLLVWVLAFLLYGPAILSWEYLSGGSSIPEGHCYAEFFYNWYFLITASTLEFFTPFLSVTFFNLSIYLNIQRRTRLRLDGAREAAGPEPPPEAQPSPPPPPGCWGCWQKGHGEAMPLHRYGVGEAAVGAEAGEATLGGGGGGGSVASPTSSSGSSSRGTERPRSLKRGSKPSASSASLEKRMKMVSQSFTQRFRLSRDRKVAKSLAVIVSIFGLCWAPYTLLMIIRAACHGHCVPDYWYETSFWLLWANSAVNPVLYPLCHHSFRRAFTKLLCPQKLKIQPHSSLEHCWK
Beta-1 adrenergic receptor, sequence (P08588 whole entry): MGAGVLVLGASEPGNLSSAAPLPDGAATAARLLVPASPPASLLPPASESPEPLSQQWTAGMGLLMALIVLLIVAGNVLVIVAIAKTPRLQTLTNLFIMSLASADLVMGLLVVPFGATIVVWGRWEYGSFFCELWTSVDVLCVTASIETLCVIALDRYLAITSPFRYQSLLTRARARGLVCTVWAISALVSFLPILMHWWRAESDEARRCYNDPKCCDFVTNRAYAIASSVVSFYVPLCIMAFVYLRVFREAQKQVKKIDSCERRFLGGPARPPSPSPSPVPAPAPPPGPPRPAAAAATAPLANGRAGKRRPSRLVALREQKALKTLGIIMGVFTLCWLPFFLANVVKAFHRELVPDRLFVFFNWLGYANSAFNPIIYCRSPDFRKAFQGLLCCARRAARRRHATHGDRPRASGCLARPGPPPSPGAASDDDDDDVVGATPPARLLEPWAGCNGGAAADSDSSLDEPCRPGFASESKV

Row | SMILES | AC50 (Adenosine receptor A1) | AC50 [1] | AC50 [2] | AC50 (Vasopressin V2 receptor) | AC50 [3] | AC50 [4] | AC50 (Histamine H1 receptor) | AC50 (Histamine H2 receptor) | AC50 [5] | AC50 [6] | AC50 (Melanocortin receptor 3) | AC50 [7] | AC50 [8] | AC50 [9] | AC50 (D(3) dopamine receptor) | AC50 (Histamine H3 receptor)
1 | C=C1/C(=C\C=C2/CCC[C@]3(C)[C@@H]([C@H](C)/C=C/[C@@H](O)C4CC4)CC[C@@H]23)C[C@@H](O)C[C@@H]1O [CALCIPOTRIENE] | > 30 µM | > 30 µM | > 30 µM | > 30 µM | > 30 µM | > 30 µM | > 30 µM | > 30 µM | > 30 µM | > 30 µM | > 30 µM | > 30 µM | > 30 µM | 2.2 µM | > 30 µM | > 30 µM
2 | Cc1ncc2n1-c1ccc(Cl)cc1C(c1ccccc1F)=NC2 [MIDAZOLAM] | > 30 µM | > 10 µM | > 10 µM | > 30 µM | 0.0025 µM | > 10 µM | > 10 µM | > 30 µM | > 30 µM | > 30 µM | > 30 µM | > 30 µM | > 30 µM | > 30 µM | 10 µM | > 10 µM
3 | COc1ccc(-c2noc(CC(=O)O)c2-c2ccc(OC)cc2)cc1 [MOFEZOLAC] | > 30 µM | > 30 µM | > 30 µM | > 30 µM | > 30 µM | > 30 µM | > 30 µM | > 30 µM | > 30 µM | > 30 µM | > 30 µM | > 30 µM | > 30 µM | 0.037 µM | > 30 µM | > 30 µM
4 | CC(=O)O[C@H](CC(=O)[O-])C[N+](C)(C)C [ACETYLCARNITINE] | > 30 µM | > 30 µM | > 30 µM | > 30 µM | > 30 µM | > 30 µM | 5.2 µM | > 30 µM | > 30 µM | > 30 µM | > 30 µM | > 30 µM | > 30 µM | > 10 µM | > 30 µM | > 30 µM
